One series relates to QTc interval of the ECG. In words: Cardiac side effects: QTc interval of the ECG in anesthetized guinea pigs. To be noted: for Prolongation of the QTc interval of the ECG (in words): intravenous infusion; for ΔQTc (%): intravenous infusion over 30 min.
The target in series [1] is T1, CYP 2D6 (Homo sapiens, UniProt P10635).
Series [2] deals with T2, human recombinant muscarinic receptor M-4 (Homo sapiens, UniProt P08173).
T2 construct: expressed in transfected cells; host or cells: SF9 insect cells (membranes)
T2 sequence (P08173 1-479): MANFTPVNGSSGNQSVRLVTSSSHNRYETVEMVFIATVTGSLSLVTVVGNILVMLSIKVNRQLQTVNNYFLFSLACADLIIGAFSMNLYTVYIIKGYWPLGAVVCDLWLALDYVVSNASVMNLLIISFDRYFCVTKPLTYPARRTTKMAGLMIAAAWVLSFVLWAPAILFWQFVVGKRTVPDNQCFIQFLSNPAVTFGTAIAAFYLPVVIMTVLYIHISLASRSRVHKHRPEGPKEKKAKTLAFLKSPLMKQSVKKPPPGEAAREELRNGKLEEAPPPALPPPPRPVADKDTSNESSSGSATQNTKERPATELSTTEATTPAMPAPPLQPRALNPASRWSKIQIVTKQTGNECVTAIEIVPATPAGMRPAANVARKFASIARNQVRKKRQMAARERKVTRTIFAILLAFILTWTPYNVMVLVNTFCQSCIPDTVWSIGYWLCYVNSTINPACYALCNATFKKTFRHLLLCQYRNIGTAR
Format: binding.

The target of series [3] is T3, human recombinant muscarinic receptor M-1 (Homo sapiens, UniProt P11229).
T3 construct: expressed in transfected cells; host or cells: SF9 insect cells (membranes)
T3 sequence (P11229 1-460): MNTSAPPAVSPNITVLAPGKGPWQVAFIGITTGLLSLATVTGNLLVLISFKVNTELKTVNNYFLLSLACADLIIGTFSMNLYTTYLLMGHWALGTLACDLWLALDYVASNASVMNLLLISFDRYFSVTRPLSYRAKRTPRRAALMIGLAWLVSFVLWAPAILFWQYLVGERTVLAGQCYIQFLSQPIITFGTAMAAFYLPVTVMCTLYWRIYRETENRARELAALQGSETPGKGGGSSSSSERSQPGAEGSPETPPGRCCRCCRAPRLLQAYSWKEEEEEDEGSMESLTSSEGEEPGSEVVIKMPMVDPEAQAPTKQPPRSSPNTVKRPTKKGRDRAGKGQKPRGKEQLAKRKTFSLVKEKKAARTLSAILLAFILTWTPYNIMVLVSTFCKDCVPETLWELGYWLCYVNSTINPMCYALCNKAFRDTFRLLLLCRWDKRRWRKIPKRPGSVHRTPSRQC
In words: biochemical. The series is classed as binding.

Series [4] deals with T4, human recombinant muscarinic receptor M-3 (Homo sapiens, UniProt P20309).
T4 construct: expressed in transfected cells; host or cells: SF9 insect cells (membranes)
In words: biochemical. The series is classed as binding.

The target of series [5] is T1, CYP 2D6. The experiment in a line: biochemical.

pIC50, pKi: −log10 of the molar value. Where two headings read alike, the source gives them in different places.

Broadly, the Ki is the dissociation constant of the complex between target and ligand, obtained from inhibition or displacement. A word on the pKi: it is the negative decadic logarithm of the Ki, by convention in mol/L. The pIC50 is the IC50 on a negative log10 scale, so that one unit is a factor of ten.

T1 sequence (P10635 whole entry): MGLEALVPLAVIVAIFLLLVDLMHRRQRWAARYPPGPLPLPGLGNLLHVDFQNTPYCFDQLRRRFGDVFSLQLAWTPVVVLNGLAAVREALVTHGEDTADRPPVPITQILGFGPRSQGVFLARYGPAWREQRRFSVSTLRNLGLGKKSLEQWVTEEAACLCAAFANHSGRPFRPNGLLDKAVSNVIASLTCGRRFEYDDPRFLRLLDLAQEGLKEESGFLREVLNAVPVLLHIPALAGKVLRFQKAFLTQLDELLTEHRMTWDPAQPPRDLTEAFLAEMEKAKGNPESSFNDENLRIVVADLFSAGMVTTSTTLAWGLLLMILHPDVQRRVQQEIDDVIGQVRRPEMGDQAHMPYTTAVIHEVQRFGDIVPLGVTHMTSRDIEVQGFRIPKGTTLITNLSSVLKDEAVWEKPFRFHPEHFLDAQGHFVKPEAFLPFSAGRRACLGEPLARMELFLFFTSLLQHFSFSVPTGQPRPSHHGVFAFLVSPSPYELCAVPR
T4 sequence (P20309 whole entry): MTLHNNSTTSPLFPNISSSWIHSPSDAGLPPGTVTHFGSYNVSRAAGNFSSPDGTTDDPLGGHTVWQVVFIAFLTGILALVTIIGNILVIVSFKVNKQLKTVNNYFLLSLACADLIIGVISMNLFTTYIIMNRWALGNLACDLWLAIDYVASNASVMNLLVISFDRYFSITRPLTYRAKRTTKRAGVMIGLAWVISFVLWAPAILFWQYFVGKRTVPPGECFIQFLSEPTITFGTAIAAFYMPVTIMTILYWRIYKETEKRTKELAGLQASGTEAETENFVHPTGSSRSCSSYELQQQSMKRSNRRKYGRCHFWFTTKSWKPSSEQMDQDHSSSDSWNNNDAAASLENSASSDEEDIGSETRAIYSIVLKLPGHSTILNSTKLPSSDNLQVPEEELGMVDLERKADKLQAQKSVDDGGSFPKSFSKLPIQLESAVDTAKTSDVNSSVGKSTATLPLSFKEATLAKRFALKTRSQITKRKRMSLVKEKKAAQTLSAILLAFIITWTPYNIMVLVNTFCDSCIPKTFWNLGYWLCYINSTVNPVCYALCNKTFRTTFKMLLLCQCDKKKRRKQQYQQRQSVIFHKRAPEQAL

As to `CC(CC(c1ccccc1)c1ccccc1)NC(C)(C)C` (stereo not shown) [Terodiline], in the series with QTc interval of the ECG, the “Prolongation of the QTc interval of the ECG (in words)” value is “statistically significant prolongation” and the “ΔQTc (%)” value is “+11 ± 1%”.

`CCN(CC)CC#CCOC(=O)C(O)(c1ccccc1)C1CCCCC1` (stereo not shown) [Oxybutynin]: in the series with QTc interval of the ECG, the “Prolongation of the QTc interval of the ECG (in words)” value is reported as “statistically significant prolongation” and the “ΔQTc (%)” value is given as “+12 ± 2%”. Moreover, on CYP 2D6 [1], the “Inhibition of CYP 2D6 isoenzyme metabolism (in words)” value is listed as “potently inhibit”.

As to `Cc1ccc(O)c([C@H](CCN(C(C)C)C(C)C)c2ccccc2)c1` [Tolterodine], the inhibition constant (Ki) in series [2] (membranes of SF9 cells expressing human recombinant receptor, read-out: Affinity (negative logarithm of the dissociation constant Ki) M-4 (converted)) was 20 nM. For the same molecule, in the series with QTc interval of the ECG, the “Prolongation of the QTc interval of the ECG (in words)” value is given as “statistically significant prolongation” and the “ΔQTc (%)” value is recorded as “+16 ± 1%”. Also, the negative logarithm of the Ki (pKi) in series [3] is 8.80.

As for `CC(C)(C)c1ccc(C(O)CCCN2CCC(C(O)(c3ccccc3)c3ccccc3)CC2)cc1` (stereo not shown) [terfenadine], the “Prolongation of the QTc interval of the ECG (in words)” value with QTc interval of the ECG was “caused QT-prolongation”.

Turning to `O=C(O[C@H]1C[C@H]2CC[C@@H](C1)[N+]21CCCC1)C(O)(c1ccccc1)c1ccccc1` [Trospium, 3α-hydroxy-spiro[1αH,5αH-nortropane-8,1′-pyrrolidinium] chloride benzilate], the pKi was 9.30 in series [4], 9.00 in series [2] and 9.10 in series [3]. At CYP 2D6 [5], this molecule had a negative logarithm of the IC50 (pIC50) of about 4.70. Besides, the “Prolongation of the QTc interval of the ECG (in words)” value with QTc interval of the ECG is “no effects”. For the same molecule, in the series with QTc interval of the ECG, the “ΔQTc (%)” value is on record as −2 ± 1%.

These data come from US6974820B2, “Methods for treating urinary incontinence and other disorders using trospium” (Bridge Pharma, Inc., priority 2002, dated 2005).
